From patent publication US20220380378A1 (ESSA Pharma, Inc., priority 2021, published 2022)

Molecular target: T1, androgen receptor (AR) (Homo sapiens, UniProt P10275, T878A)
T1 sequence (P10275 1-920 T878A): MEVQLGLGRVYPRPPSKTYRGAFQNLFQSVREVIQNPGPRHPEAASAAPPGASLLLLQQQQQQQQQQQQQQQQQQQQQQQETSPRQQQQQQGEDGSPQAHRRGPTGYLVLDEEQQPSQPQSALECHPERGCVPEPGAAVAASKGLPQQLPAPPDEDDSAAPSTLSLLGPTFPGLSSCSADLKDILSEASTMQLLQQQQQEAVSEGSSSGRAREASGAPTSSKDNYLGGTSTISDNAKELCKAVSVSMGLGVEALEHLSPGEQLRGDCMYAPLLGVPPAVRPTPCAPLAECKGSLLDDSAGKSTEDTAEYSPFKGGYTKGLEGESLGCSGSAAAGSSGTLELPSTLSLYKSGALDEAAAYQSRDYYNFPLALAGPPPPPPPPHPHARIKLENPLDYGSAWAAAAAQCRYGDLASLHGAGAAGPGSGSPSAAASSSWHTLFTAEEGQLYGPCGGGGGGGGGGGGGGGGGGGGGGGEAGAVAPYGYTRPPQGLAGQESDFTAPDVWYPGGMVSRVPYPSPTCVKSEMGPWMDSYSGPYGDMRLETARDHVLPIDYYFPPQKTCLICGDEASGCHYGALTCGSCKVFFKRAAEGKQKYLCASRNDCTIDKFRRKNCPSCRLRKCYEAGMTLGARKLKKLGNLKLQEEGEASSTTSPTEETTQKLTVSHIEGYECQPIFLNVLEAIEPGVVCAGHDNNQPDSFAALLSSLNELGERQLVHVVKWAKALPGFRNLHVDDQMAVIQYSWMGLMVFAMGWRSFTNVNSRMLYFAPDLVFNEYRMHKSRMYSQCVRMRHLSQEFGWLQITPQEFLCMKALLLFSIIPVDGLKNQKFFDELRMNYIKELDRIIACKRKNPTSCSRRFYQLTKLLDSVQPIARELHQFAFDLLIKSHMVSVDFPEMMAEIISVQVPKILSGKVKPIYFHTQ
Assay: Androgen-induced PSA (6.1 kb)-luciferase reporter assay in LNCaP cells (R1881 1 nM)
Type: cell-based
Parameters: LNCaP cells were transiently transfected with the PSA (6.1 kb)-luciferase reporter for 24 h; endogenous in cells; host or cells: LNCaP
Conditions: 24 h, read-out: PSA-Luc IC50 Range
Procedure: The PSA (6.1 kb)-luciferase reporter contains functional AREs (androgen response elements) to which AR binds in response to androgen to induce luciferase activity. LNCaP cells were transiently transfected with the PSA (6.1 kb)-luciferase reporter for 24 h, and then pretreated with vehicle (DMSO) or indicated concentration of representative compounds for one hour prior to the addition of synthetic androgen, R1881 (1 nM). After 24 h of incubation with R1881, the cells were harvested, and relative luciferase activities were determined (FIG. 1). To determine the IC50, treatments were normalized to vehicle control activity induced by R1881 (Table 2).
Luciferase Assay: Cells were lysed using Passive Lysis Buffer (Promega) and then collected into V-bottom 96-well tissue culture plates. Lysates were centrifuged at 4° C. for 5 minutes at 3000 rpm. To measure luminescence of LNCaP cell lysates the Firefly Luciferase Assay System (Promega) was employed, according to manufacturer's protocol. Relative luminescence units (RLU) in cell lysates were detected for 10 seconds using Promega GloMax-Multi Detection Luminometer (Promega). Values were normalized to protein content. GraphPad Prism graphing software was used to calculate IC50 values.
Statistical analyses were performed using GraphPad Prism (Version 6.01 for Windows; La Jolla, Calif., USA). […]

CS(=O)(=O)Nc1nccc(COc2ccc3c(ncn3-c3cc(Cl)c(OCCCl)c(C#N)c3)c2Cl)n1 [Compound A46]
IC50: < 500 nM
